Measured values taken from PubChem BioAssay AID2060496 (Molecular Pharmacology Branch, DTP, NCI, 2025).

Test system: 276233-004-R-J1-PDC complex spheroid viability
Assay: Anticancer human tumor 276233-004-R-J1-PDC patient-derived colon adenocarcinoma cell line growth inhibition [GQUAD]
Conditions: for IC50: curve of first compound; for viability, T/C: stronger effect = lower value
Outline: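 Viability of tumor cells grown as complex spheroids with endothelial and stromal cells, exposed to drug combinations. Top concentration at or near clinical Cmax (else 10 microM), diluted in half-log increments.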

[1] = second compound 0.0316 µM, first compound 0.0316 µM
[2] = second compound 0.0316 µM, first compound 0.1 µM
[3] = second compound 0.0316 µM, first compound 0.316 µM
[4] = second compound 0.0316 µM, first compound 1 µM
[5] = second compound 0.0316 µM, first compound 3.16 µM
[6] = second compound 0.0316 µM, first compound 10 µM
[7] = second compound 0.1 µM, first compound 0.0316 µM
[8] = second compound 0.1 µM, first compound 0.1 µM
[9] = second compound 0.1 µM, first compound 0.316 µM
[10] = second compound 0.1 µM, first compound 1 µM
[11] = second compound 0.1 µM, first compound 3.16 µM
[12] = second compound 0.1 µM, first compound 10 µM
[13] = second compound 0.316 µM, first compound 0.0316 µM
[14] = second compound 0.316 µM, first compound 0.1 µM
[15] = second compound 0.316 µM, first compound 0.316 µM
[16] = second compound 0.316 µM, first compound 1 µM
[17] = second compound 0.316 µM, first compound 3.16 µM
[18] = second compound 0.316 µM, first compound 10 µM
[19] = second compound 1 µM, first compound 0.0316 µM
[20] = second compound 1 µM, first compound 0.1 µM
[21] = second compound 1 µM, first compound 0.316 µM
[22] = second compound 1 µM, first compound 1 µM
[23] = second compound 1 µM, first compound 3.16 µM
[24] = second compound 1 µM, first compound 10 µM
[25] = second compound 3.16 µM, first compound 0.0316 µM
[26] = second compound 3.16 µM, first compound 0.1 µM
[27] = second compound 3.16 µM, first compound 0.316 µM
[28] = second compound 3.16 µM, first compound 1 µM
[29] = second compound 3.16 µM, first compound 3.16 µM
[30] = second compound 3.16 µM, first compound 10 µM
[31] = second compound 10 µM, first compound 0.0316 µM
[32] = second compound 10 µM, first compound 0.1 µM
[33] = second compound 10 µM, first compound 0.316 µM
[34] = second compound 10 µM, first compound 1 µM
[35] = second compound 10 µM, first compound 3.16 µM
[36] = second compound 10 µM, first compound 10 µM
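Also: spheroids exposed to drugs for seven days.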
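For viability, T/C in this document: 100% = DMSO vehicle control viability.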

COc1ncnc(C2CC2)c1-c1ncc2cnn(Cc3ccc(-c4nc(C(F)(F)F)cn4C(C)C)cc3)c2n1 + Cc1cnc(CNC(=O)c2c(=O)c3ccc(N4CCCN(C)CC4)nc3n3c2sc2ccccc23)cn1
IC50 (second compound 0.0316 µM): > 10000 nM | IC50 (second compound 0.1 µM): > 10000 nM | IC50 (second compound 0.316 µM): > 10000 nM | IC50 (second compound 1 µM): > 10000 nM | IC50 (second compound 3.16 µM): > 10000 nM | IC50 (second compound 10 µM): > 10000 nM | viability, T/C [1]: 81.9% | viability, T/C [2]: 77.1% | viability, T/C [3]: 66.1% | viability, T/C [4]: 79.7% | viability, T/C [5]: 86.2% | viability, T/C [6]: 89% | viability, T/C [7]: 76.2% | viability, T/C [8]: 95.5% | viability, T/C [9]: 83% | viability, T/C [10]: 84.2% | viability, T/C [11]: 76.9% | viability, T/C [12]: 84.5% | viability, T/C [13]: 87.3% | viability, T/C [14]: 91.2% | viability, T/C [15]: 83.4% | viability, T/C [16]: 87.9% | viability, T/C [17]: 78.4% | viability, T/C [18]: 86.4% | viability, T/C [19]: 84.6% | viability, T/C [20]: 81.4% | viability, T/C [21]: 81.5% | viability, T/C [22]: 74.5% | viability, T/C [23]: 74.8% | viability, T/C [24]: 89.6% | viability, T/C [25]: 76.1% | viability, T/C [26]: 65.1% | viability, T/C [27]: 80.5% | viability, T/C [28]: 62.4% | viability, T/C [29]: 64.5% | viability, T/C [30]: 75.5% | viability, T/C [31]: 67.9% | viability, T/C [32]: 60.9% | viability, T/C [33]: 64.3% | viability, T/C [34]: 62.9% | viability, T/C [35]: 69.6% | viability, T/C [36]: 65.2%

O=C(NO)c1cnc(N2CCN(S(=O)(=O)c3ccc4ccccc4c3)CC2)nc1 + CN(C)c1ccc(Nc2c3ccc(NC(=O)CCN4CCCC4)cc3nc3cc(NC(=O)CCN4CCCC4)ccc23)cc1
IC50 (second compound 0.0316 µM): 564 nM | IC50 (second compound 0.1 µM): 382 nM | IC50 (second compound 0.316 µM): 291 nM | IC50 (second compound 1 µM): 385 nM | IC50 (second compound 3.16 µM): 207 nM | IC50 (second compound 10 µM): < 31.6 nM | viability, T/C [1]: 97.6% | viability, T/C [2]: 110% | viability, T/C [3]: 93.9% | viability, T/C [4]: 6.51% | viability, T/C [5]: 1.16% | viability, T/C [6]: 0.86% | viability, T/C [7]: 77.9% | viability, T/C [8]: 138% | viability, T/C [9]: 59.3% | viability, T/C [10]: 5.11% | viability, T/C [11]: 0.78% | viability, T/C [12]: 1.12% | viability, T/C [13]: 61% | viability, T/C [14]: 90.4% | viability, T/C [15]: 48% | viability, T/C [16]: 4.4% | viability, T/C [17]: 1.75% | viability, T/C [18]: 1.22% | viability, T/C [19]: 70% | viability, T/C [20]: 85.4% | viability, T/C [21]: 59.9% | viability, T/C [22]: 1.33% | viability, T/C [23]: 1.89% | viability, T/C [24]: 2.09% | viability, T/C [25]: 74.2% | viability, T/C [26]: 68.7% | viability, T/C [27]: 38.8% | viability, T/C [28]: 3.01% | viability, T/C [29]: 1.99% | viability, T/C [30]: 0.85% | viability, T/C [31]: 35.5% | viability, T/C [32]: 45.6% | viability, T/C [33]: 25.5% | viability, T/C [34]: 5.18% | viability, T/C [35]: 1.04% | viability, T/C [36]: 1.85%
